{
  "source": "ChEMBL document CHEMBL5512617",
  "about": "“Tackling Influenza A virus by M2 ion channel blockers: Latest progress and limitations” (Eur J Med Chem, 2024)",
  "note": "pEC50, pIC50: −log10 of the molar value.",
  "data": [
    {"system": "Influenza A virus", "type": "functional, organism-based", "conditions": "H5N1 (A/chicken/Hubei/327/2004), MDCK", "values": [
      {"smiles": "[C-]#[N+]C1C2CC3CC(C2)CC1C3", "note": "(centres undefined)", "pEC50": 5.01},
      {"smiles": "[C-]#[N+][C@@H]1C[C@@H]2C[C@H]([C@H]1C)C2(C)C", "pEC50": 5.13},
      {"smiles": "[C-]#[N+]C(C)C12CC3CC(CC(C3)C1)C2", "note": "(centres undefined)", "pEC50": 6.62},
      {"smiles": "[C-]#[N+]c1c(C)cc(C(C)(C)C)cc1C", "pEC50": 6.62},
      {"smiles": "[C-]#[N+]C(C)(C)CC(C)(C)C", "pEC50": 5.41},
      {"smiles": "[C-]#[N+]C12CC3CC(CC(C3)C1)C2", "pEC50": 6.31}
    ]},
    {"system": "Influenza A virus", "type": "functional, organism-based", "conditions": "A/WSN/33 (H1N1), MDCK, 48 h", "values": [
      {"smiles": "Brc1cc(CNC23CC4CC(CC(C4)C2)C3)cs1", "pEC50": 5.66},
      {"smiles": "c1c(CNC23CC4CC(CC(C4)C2)C3)noc1C1CC1", "pEC50": 6.31}
    ]},
    {"system": "Influenza A virus", "test": "Antiviral activity against influenza A virus A/hanfang/359/95 (H3N2)", "type": "functional, organism-based", "conditions": "not given", "values": [
      {"smiles": "O=C(CCC[C@@H]1[C@H]2CCCN3CCC[C@@H](CN1S(=O)(=O)c1ccc(C(F)(F)F)cc1)[C@@H]23)OCC12CC3CC(CC(C3)C1)C2", "pIC50": 4.68},
      {"smiles": "O=C(CCC[C@@H]1[C@H]2CCCN3CCC[C@@H](CN1S(=O)(=O)c1cccc(C(F)(F)F)c1)[C@@H]23)OCC12CC3CC(CC(C3)C1)C2", "pIC50": 5.29},
      {"smiles": "Cc1ccc(S(=O)(=O)N2C[C@@H]3CCCN4CCC[C@@H]([C@H]34)[C@H]2CCCC(=O)OCC23CC4CC(CC(C4)C2)C3)cc1", "pIC50": 4.79},
      {"smiles": "O=C(CCC[C@@H]1[C@H]2CCCN3CCC[C@@H](CN1S(=O)(=O)c1ccccc1)[C@@H]23)OCC12CC3CC(CC(C3)C1)C2", "pIC50": 4.79},
      {"smiles": "O=C(CCC[C@@H]1[C@H]2CCCN3CCC[C@@H](CN1S(=O)(=O)c1cccc(C(F)(F)F)c1)[C@@H]23)OCC12CC3CC(CC(O)(C3)C1)C2", "pIC50": 4.95},
      {"smiles": "O=C(CCC[C@@H]1[C@H]2CCCN3CCC[C@@H](CN1S(=O)(=O)c1ccc(C(F)(F)F)cc1)[C@@H]23)OCCC12CC3CC(CC(C3)C1)C2", "pIC50": 4.77},
      {"smiles": "O=C(CCC[C@@H]1[C@H]2CCCN3CCC[C@@H](CN1S(=O)(=O)c1ccc(C(F)(F)F)cc1)[C@@H]23)OCC12CC3CC(CC(O)(C3)C1)C2", "pIC50": 5.02}
    ]},
    {"system": "Influenza A virus", "type": "functional, organism-based", "conditions": "H1N1 (A/California/7/2009), MDCK, 72 h", "values": [
      {"smiles": "CC[C@@H](C(=O)[C@@H](C)[C@@H](O)[C@H](C)[C@@H]1O[C@@H]([C@@H](CC)C(=O)O)CC[C@@H]1C)[C@H]1O[C@]2(C=C[C@@H](O)[C@]3(CC[C@@](C)([C@H]4CC[C@](O)(CC)[C@H](C)O4)O3)O2)[C@H](C)C[C@@H]1C", "note": "[SALINOMYCIN]", "pEC50": 5.72}
    ]},
    {"system": "not listed separately", "test": "Selectivity index, ratio of CC50 for MDCK cells to IC50 for influenza A virus A/hanfang/359/95 (H3N2)", "type": "toxicity", "conditions": "dog, read-out: Ratio CC50/IC50", "values": [
      {"smiles": "O=C(CCC[C@@H]1[C@H]2CCCN3CCC[C@@H](CN1S(=O)(=O)c1cccc(C(F)(F)F)c1)[C@@H]23)OCC12CC3CC(CC(C3)C1)C2", "selectivity ratio": 9.31}
    ]},
    {"system": "Influenza A virus", "type": "functional, organism-based", "conditions": "A/WSN/33 (H1N1), MDCK, 48 h", "remark": "another data set of the same source", "values": [
      {"smiles": "c1nc(N2CCCCCC2)cnc1CNC12CC3CC(CC(C3)C1)C2", "pEC50": 5.72},
      {"smiles": "c1nc(N2CCCCC2)ncc1CNC12CC3CC(CC(C3)C1)C2", "pEC50": 5.82},
      {"smiles": "OC12CC3CC(C1)CC(NCc1cnc(N4CCCCC4)nc1)(C3)C2", "pEC50": 5.37},
      {"smiles": "OC12CC3CC(C1)CC(NCc1ccc(N4CCCCCC4)cn1)(C3)C2", "pEC50": 5.57},
      {"smiles": "c1nc(N2CCCCCC2)ncc1CNC12CC3CC(CC(C3)C1)C2", "pEC50": 6.15},
      {"smiles": "OC12CC3CC(C1)CC(NCc1ccc(N4CCCCCCC4)cn1)(C3)C2", "pEC50": 5.10}
    ]},
    {"molecular_target": "T1, Matrix protein 2 (Influenza A virus, UniProt P06821)", "T1 sequence (P06821 whole entry)": "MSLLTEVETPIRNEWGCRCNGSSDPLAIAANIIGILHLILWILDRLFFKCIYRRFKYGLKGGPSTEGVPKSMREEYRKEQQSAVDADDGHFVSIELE", "type": "cell-based, A/Udorn/72, Oocyte", "conditions": "not given", "values": [
      {"smiles": "NC1CCC2(CCCCC2)CC1", "note": "[listing 1 of 2 here]", "pIC50": 4.90},
      {"smiles": "NCC1CCC2(CCCCC2)CC1", "pIC50": 5.05},
      {"smiles": "NC1CCC2(CCCC2)CC1", "note": "[listing 1 of 2 here]", "pIC50": 5.48},
      {"smiles": "NC1CCCC2(CCCCCC2)CC1", "note": "(centres undefined)", "pIC50": 5.06},
      {"smiles": "C1CCC2(CC1)CCNCC2", "pIC50": 6.05},
      {"smiles": "NC1CCC2(CCCCCC2)CC1", "pIC50": 4.89},
      {"smiles": "CC(N)C1CCC2(CCCCC2)CC1", "note": "(centres undefined)", "pIC50": 4.80},
      {"smiles": "NC1CCCC2(CCCCC2)CC1", "note": "(centres undefined)", "pIC50": 4.88}
    ]},
    {"system": "not listed separately", "test": "Cytotoxicity against MDCK cells incubated for 72 hrs by CCK-8 assay", "type": "toxicity, cell-based, Canis lupus familiaris", "conditions": "dog", "units": {"CC50 at 72 h": "µM"}, "values": [
      {"smiles": "C[C@H]1[C@H](N)C[C@@H]2C[C@H]1C2(C)C", "CC50 at 72 h": "> 300"},
      {"smiles": "CC(N)[C@H]1C[C@H]2CC[C@]1(C)C2(C)C", "note": "(some centres undefined)", "CC50 at 72 h": "> 300"},
      {"smiles": "CC1(C)[C@@H]2CC[C@@]1(C)[C@@H](CN)C2", "CC50 at 72 h": "> 300"}
    ]},
    {"system": "not listed separately", "test": "Cytotoxicity against MDCK cells incubated for 24 hrs by neutral red uptake assay", "type": "toxicity, cell-based, Canis lupus familiaris", "conditions": "dog", "units": {"CC50 at 24 h": "µM"}, "values": [
      {"smiles": "NC1CCC2(CC1)C1CC3CC(C1)CC2C3", "note": "(centres undefined)", "CC50 at 24 h": 27.6}
    ]},
    {"system": "Influenza A virus", "type": "functional, organism-based", "conditions": "H1N1 (A/Hongkong/68), MDCK, 24 h", "units": {"IC50": "µg/mL"}, "values": [
      {"smiles": "CC(NC(=O)c1csc(CN)n1)C12CC3CC(CC(C3)C1)C2", "note": "(centres undefined)", "IC50": 0.11}
    ]},
    {"system": "Influenza A virus", "type": "functional, organism-based", "conditions": "H3N2 (A/Perth/10/2007), MDCK, 72 h", "values": [
      {"smiles": "CC[C@@H](C(=O)[C@@H](C)[C@@H](O)[C@H](C)[C@@H]1O[C@@H]([C@@H](CC)C(=O)O)CC[C@@H]1C)[C@H]1O[C@]2(C=C[C@@H](O)[C@]3(CC[C@@](C)([C@H]4CC[C@](O)(CC)[C@H](C)O4)O3)O2)[C@H](C)C[C@@H]1C", "note": "[SALINOMYCIN]", "pEC50": 5.59}
    ]},
    {"system": "not listed separately", "test": "Cytotoxicity against MDCK cells measured after 3 days by MTT assay", "type": "toxicity, cell-based, Canis lupus familiaris", "conditions": "dog, time 3 day", "units": {"CC50 at 72 h": "µM"}, "values": [
      {"smiles": "CC[C@@H](C(=O)[C@@H](C)[C@@H](O)[C@H](C)[C@@H]1O[C@@H]([C@@H](CC)C(=O)O)CC[C@@H]1C)[C@H]1O[C@]2(C=C[C@@H](O)[C@]3(CC[C@@](C)([C@H]4CC[C@](O)(CC)[C@H](C)O4)O3)O2)[C@H](C)C[C@@H]1C", "note": "[SALINOMYCIN]", "CC50 at 72 h": 35.6}
    ]},
    {"system": "not listed separately", "test": "Cytotoxicity against MDCK cells", "type": "toxicity, cell-based, Canis lupus familiaris", "conditions": "dog", "values": [
      {"smiles": "CC(NC(=O)c1csc(CN)n1)C12CC3CC(CC(C3)C1)C2", "note": "(centres undefined)", "CC50": "50 µg/mL"},
      {"smiles": "O=C(CCC[C@@H]1[C@H]2CCCN3CCC[C@@H](CN1S(=O)(=O)c1cccc(C(F)(F)F)c1)[C@@H]23)OCC12CC3CC(CC(C3)C1)C2", "CC50": "47.8 µM"}
    ]},
    {"molecular_target": "T1, Matrix protein 2", "type": "cell-based, Oocyte", "conditions": "not given", "remark": "another data set of the same source", "values": [
      {"smiles": "C[Si]1(C)CCC(N)CC1", "pIC50": 5.59},
      {"smiles": "NC1CC[Si]2(CCCCC2)CC1", "pIC50": 4.86},
      {"smiles": "C[Si]1(C)CCCNCC1", "pIC50": 4.71},
      {"smiles": "NC1CC[Si]2(CCCC2)CC1", "pIC50": 5.11},
      {"smiles": "C[Si]1(C)CCC(CN)CC1", "pIC50": 5.24},
      {"smiles": "CC1(C)CCCNCC1", "pIC50": 4.58},
      {"smiles": "NC1CCC2(CCCC2)CC1", "note": "[listing 2 of 2 here]", "pIC50": 5.48},
      {"smiles": "NC1CCC2(CCCCC2)CC1", "note": "[listing 2 of 2 here]", "pIC50": 4.90},
      {"smiles": "CC1(C)CCC(N)CC1", "pIC50": 5.62}
    ]}
  ]
}
